{"source": "ChEMBL document CHEMBL1142772", "about": "“Discovery and SAR of biaryl piperidine MCH1 receptor antagonists through solid-phase encoded combinatorial synthesis” (Bioorg Med Chem Lett, 2005)", "assay": "Area under curve (time =0-6 hours)", "assay_type": "ADME", "parameters": "time < 6 hr", "settings": "rat", "data": [{"molecule": "CN1CCC(CNC(=O)Nc2cc(Cl)cc(Cl)c2)(c2ccc(-c3cccnc3)cc2)CC1", "values": [{"measurement": "AUC", "value": 1.4, "unit": "µM"}]}]}
